Laboratory results as given in US20130217640A1 (priority 2010, published 2013).
In brackets after ≈: the same amount, converted by molar mass.

Tests used:
[1] = Solution stability study at three pD's in phosphate buffered D2O, monitored by 1H NMR; assay type: physicochemical; conditions: 23° C.; for stability in solution (in words): pD 5.0, 6.0 and 7.0, phosphate buffered D2O, protected from light; for change in 1H NMR spectra: after 167 days, pD 5.0, 6.0, 7.0 in D2O
Experimental: 10 mL (11.07 g) D2O was placed in 3 separate vials with a stir bar and 0.002 moles (0.272 g) monobasic potassium phosphate (KH2PO4) was added to each. With the pD metered, NaOD/D2O was added drop-wise to each to adjust the pD's to 5.0, 6.0, and 7.0. Each of these solutions was gently boiled before use. Thus each vial contained […] phosphate buffered solution. […] The sample was sterilized by heating for 10 seconds, and after it had cooled down to ambient temperature (about 1 minute), 0.3 mL of one of the 0.2 mM 3 buffered solutions was added. The 0.6 mL sample was then placed in a sterilized NMR tube and the tube sealed and labeled. Each of the samples was stored at 23° C. protected from the light and monitored by ^1H NMR (64 scans for each sample) periodically.

[2] = Water solubility of the analogs (saturated D2O solution, 1H NMR against DSS standard); assay type: physicochemical; conditions: for water solubility (in words): D2O, Table 1
Experimental: The method use involved stirring the sample in D2O for a period of 3 days, followed by filtration using a 0.2μ syringe filter. A measured volume of this saturated solution was diluted with a standard solution of DSS in D2O, and a ^1H NMR was taken. Integration of the DSS peaks compared to that of the analog would allow for the determination of its concentration, and thus the concentration of the saturated solution.

[3] = Pharmacokinetics after intravenous administration: pro-drug and released acetaminophen in plasma or blood; assay type: in vivo, male Sprague-Dawley rats; conditions: for half-life: male, Sprague-Dawley, plasma, 66.3 umol/kg, read-out: half life (t1/2) of the pro-drug; for half-life / half-life of the pro-drug (in words) / AUC of the pro-drug (in words): target dose 66.3 μmol/Kg, Table 4

In the case of CC(=O)Nc1ccc(O[C@@H]2C=C[C@H](O)[C@@H](CO)O2)cc1 [Compound 1, N-(4-((2R,5S,6R)-5-hydroxy-6-(hydroxymethyl)-5,6-dihydro-2H-pyran-2-yloxy)phenyl)acetamide, reference compound], the “stability in solution (in words)” value [1] was “least stable to all of the pD's”.
In the case of CC(=O)Nc1ccc(O[C@H]2O[C@H](CO)[C@@H](OC3O[C@H](CO)[C@@H](O)[C@H](O)[C@H]3O)[C@H](O)[C@@H]2O)cc1 (stereo partly drawn) [Compound 5, 1-(4-acetaminophenoxy) 2-epi maltose], the “change in 1H NMR spectra” value [1] was “no change” and the “water solubility (in words)” value [2] was “highest solubility of all of the analogs”.
For CC(=O)Nc1ccc(O[C@H]2O[C@H](CO)[C@@H](O)[C@H](O)[C@@H]2O)cc1 [Compound 8, N-(4-((2R,3S,4S,5S,6R)-3,4,5-trihydroxy-6-(hydroxymethyl)tetrahydro-2H-pyran-2-yloxy)phenyl)acetamide], the “change in 1H NMR spectra” value [1] was “no change”, the half-life ([3]; rat, intravenous) was under 1 h and the “half-life of the pro-drug (in words)” value ([3]; rat, intravenous) was “relatively high half-lives”.
In the case of CC(=O)Nc1ccc(O[C@@H]2CC[C@H](O)[C@@H](CO)O2)cc1 [Compound 12, 1-(4′-acetamidophenoxy) 2,3-dideoxy glucose], the “stability in solution (in words)” value [1] was “showing a lot of instability”.
For CC(=O)Nc1ccc(O[C@H]2O[C@H](COC(C)=O)[C@@H](O)[C@H](O)[C@@H]2O)cc1 [Compound 15], the half-life ([3]; rat, intravenous) was under 1 h, the “AUC of acetaminophen released by the pro-drug (in words)” value ([3]; rat, intravenous, Table 5) was “largest AUC value of all of the pro-drugs” and the “AUC of the pro-drug (in words)” value ([3]; rat, intravenous) was “low values for AUC”. For the same compound, the “overall characteristics (water solubility, release of acetaminophen, AUC)” value ([3]; summary statement) was “best combination of water solubility, quick release of the acetaminophen, and AUC”.
For CCCC(=O)OC[C@H]1O[C@H](Oc2ccc(NC(C)=O)cc2)C=C[C@@H]1O [Compound 16, 1-(4′-acetamidophenoxy)-6-O-butyryl-2,3-dideoxy 2,3-didehydro glucose], the “water solubility (in words)” value [2] was “excellent solubility”.
With CCCC(=O)OC[C@H]1O[C@H](Oc2ccc(NC(C)=O)cc2)[C@@H](O)[C@@H](O)[C@@H]1O [Compound 18, 1-(4′-acetamidophenoxy)-6-O-butyrylmannose] the half-life ([3]; rat, intravenous) was under 1 h and the “AUC of the pro-drug (in words)” value ([3]; rat, intravenous) was “low values for AUC”.
In the case of CC(=O)Nc1ccc(O[C@H]2O[C@H](COC(=O)C(C)C)[C@@H](O)[C@H](O)[C@@H]2O)cc1 [Compound 19, 1-(4′-acetamidophenoxy)-6-O-isobutyrylmannose], the half-life ([3]; rat, intravenous) was under 1 h and the “AUC of the pro-drug (in words)” value ([3]; rat, intravenous) was “low values for AUC”.
For CC(=O)Nc1ccc(O[C@H]2O[C@H](COC(=O)CCC(=O)O)[C@@H](O)[C@H](O)[C@@H]2O)cc1 [Compound 20], the “AUC of the pro-drug (in words)” value ([3]; rat, intravenous) was “high AUC values” and the “half-life of the pro-drug (in words)” value ([3]; rat, intravenous) was “relatively high half-lives”.
In the case of CC(=O)Nc1ccc(O[C@H]2O[C@H](C)[C@@H](O)[C@H](O)[C@@H]2O)cc1 [Compound 23, 1-(4′-acetamidophenoxy)-6-deoxymannose], the “AUC of the pro-drug (in words)” value ([3]; rat, intravenous) was “high AUC values” and the “half-life of the pro-drug (in words)” value ([3]; rat, intravenous) was “relatively high half-lives”.
In the case of CC(=O)Nc1ccc(O)cc1 [acetaminophen, reference compound], the “change in 1H NMR spectra” value [1] was “no change” and the water solubility ([2]; stirred in D2O for 3 days, filtered 0.2μ, 1H NMR integration vs DSS) was 13 mg/mL (≈ 86 mM).
